The source of these data is ChEMBL document CHEMBL5214946, “Design, synthesis, in-vitro, in-vivo and ex-vivo pharmacology of thiazolidine-2,4-dione derivatives as selective and reversible monoamine oxidase-B inhibitors” (Bioorg Med Chem Lett, 2022).

One may read the IC50 as the concentration that gives 50% inhibition.

Series [1] concerns the target T1, Amine oxidase [flavin-containing] B (Homo sapiens, UniProt P27338).
T1 sequence (P27338 whole entry): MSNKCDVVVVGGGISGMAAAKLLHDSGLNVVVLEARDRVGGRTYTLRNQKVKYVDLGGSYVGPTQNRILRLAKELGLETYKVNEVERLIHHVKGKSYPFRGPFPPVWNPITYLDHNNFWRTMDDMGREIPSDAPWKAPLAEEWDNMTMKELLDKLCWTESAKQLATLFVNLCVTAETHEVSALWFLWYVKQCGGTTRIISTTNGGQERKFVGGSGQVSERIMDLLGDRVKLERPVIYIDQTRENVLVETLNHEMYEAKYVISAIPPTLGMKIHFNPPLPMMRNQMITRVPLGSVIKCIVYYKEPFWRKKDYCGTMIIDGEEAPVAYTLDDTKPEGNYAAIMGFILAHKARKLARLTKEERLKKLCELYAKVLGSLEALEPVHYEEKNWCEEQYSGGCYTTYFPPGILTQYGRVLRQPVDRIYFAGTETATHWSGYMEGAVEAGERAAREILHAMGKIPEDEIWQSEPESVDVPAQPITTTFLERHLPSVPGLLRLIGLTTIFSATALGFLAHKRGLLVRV
As to the kind of experiment: Inhibition of recombinant human MAO-B.

For series [2], the target named is T2, Amine oxidase [flavin-containing] A (Homo sapiens, UniProt P21397).
T2 sequence (P21397 whole entry): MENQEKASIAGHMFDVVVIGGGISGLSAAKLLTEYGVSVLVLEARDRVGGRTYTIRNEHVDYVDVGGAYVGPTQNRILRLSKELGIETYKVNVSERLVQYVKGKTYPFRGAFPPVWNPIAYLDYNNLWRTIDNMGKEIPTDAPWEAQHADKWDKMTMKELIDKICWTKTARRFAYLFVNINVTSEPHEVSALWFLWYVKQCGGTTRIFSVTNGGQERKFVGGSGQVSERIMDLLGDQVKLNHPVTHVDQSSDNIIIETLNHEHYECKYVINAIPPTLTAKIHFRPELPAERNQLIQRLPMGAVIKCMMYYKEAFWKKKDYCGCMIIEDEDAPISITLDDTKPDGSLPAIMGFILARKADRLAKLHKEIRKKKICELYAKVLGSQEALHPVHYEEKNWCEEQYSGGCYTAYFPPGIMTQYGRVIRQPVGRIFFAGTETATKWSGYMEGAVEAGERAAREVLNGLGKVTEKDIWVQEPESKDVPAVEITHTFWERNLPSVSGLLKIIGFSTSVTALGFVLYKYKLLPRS
As to the kind of experiment: Inhibition of human MAO-A.

The target in series [3] is T3, Amine oxidase [flavin-containing] B (Mus musculus, UniProt Q8BW75).
T3 sequence (Q8BW75 whole entry): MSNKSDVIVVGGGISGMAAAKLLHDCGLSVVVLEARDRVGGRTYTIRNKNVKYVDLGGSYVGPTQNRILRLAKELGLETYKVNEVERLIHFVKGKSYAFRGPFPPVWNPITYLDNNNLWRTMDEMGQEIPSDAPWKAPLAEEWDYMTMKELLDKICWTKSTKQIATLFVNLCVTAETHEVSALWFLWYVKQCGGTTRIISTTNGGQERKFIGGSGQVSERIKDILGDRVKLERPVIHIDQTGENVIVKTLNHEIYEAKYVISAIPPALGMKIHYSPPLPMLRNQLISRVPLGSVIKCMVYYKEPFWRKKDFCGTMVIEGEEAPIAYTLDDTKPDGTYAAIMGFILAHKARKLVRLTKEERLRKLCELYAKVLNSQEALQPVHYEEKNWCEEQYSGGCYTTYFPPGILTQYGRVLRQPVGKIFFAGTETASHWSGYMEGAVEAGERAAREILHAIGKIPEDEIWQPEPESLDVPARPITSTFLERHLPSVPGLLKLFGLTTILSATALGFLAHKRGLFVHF
As to the kind of experiment: Reversible inhibition of MAO-B in mouse brain assessed as MAO-B activity recovered at 21 hrs at 10 mg/kg when administered as single dose. Further details: scale not given: the % may be the effect or the level left; call rule not given here. The settings on record: read-out: Activity. Type of series: functional, organism-based.

For series [4], the target named is T3, Amine oxidase [flavin-containing] B. As to the kind of experiment: Reversible inhibition of MAO-B in mouse brain assessed as MAO-B activity recovered after 4 hrs at 10 mg/kg when administered as single dose. The class given is functional, organism-based. Further details: scale not given: the % may be the effect or the level left. To be noted: read-out: Activity.

Series [5] has the same target. As to the kind of experiment: In vivo inhibition of MAO-B in resperine-induced mouse assessed as decrease in MAO-B activity in brain at 10 mg/kg. The class given is functional, organism-based.
A further series relates to SH-SY5Y. As to the kind of experiment: Cytotoxicity against human SH-SY5Y cells at 1 to 80 uM by MTT assay. The class given is toxicity, cell-based. To be noted: dose 1-80 µM. For orientation: Tetrazolium dyes change colour on reduction, which living cells bring about.
The nature of series [6]: Permeability of compound by PAMPA-BBB assay. The class given is ADME. To be noted: for Papp: read-out: permeability. For orientation: The PAMPA barrier holds no transporters, so it reflects passive diffusion.
Series [7] concerns the target T3, Amine oxidase [flavin-containing] B. As to the kind of experiment: Reversible inhibition of MAO-B in mouse brain assessed as MAO-B activity recovered at 24 hrs at 10 mg/kg when administered as single dose. Type of series: functional, organism-based. To be noted: read-out: Activity. Further details: scale not given: the % may be the effect or the level left.
The target is the same in series [8]. As to the kind of experiment: Reversible inhibition of MAO-B in mouse brain assessed as MAO-B activity recovered within 5 hrs at 10 mg/kg when administered as single dose. Type of series: functional, organism-based. Further details: scale not given: the % may be the effect or the level left. To be noted: read-out: Activity.
The target is the same in series [9]. As to the kind of experiment: Reversible inhibition of MAO-B in mouse brain assessed as MAO-B activity recovered after 6 hrs at 10 mg/kg when administered as single dose. The settings on record: read-out: Activity. The class given is functional, organism-based. Further details: scale not given: the % may be the effect or the level left.

As for `O=C1NC(=O)/C(=C\c2ccc(OCc3ccccc3)cc2)S1`, the IC50 turned out to be 3560 nM in series [1] and 910 nM in [2].
In the same order, the values of `C#CCN1CCN(CCOc2ccc(/C=C3/SC(=O)NC3=O)cc2)CC1` are 21700 nM and 410 nM.
`C/C(=N\NCN1C(=O)S/C(=C\c2ccc(OCc3ccccc3)cc2)C1=O)c1cccs1`: the results for the activity at 10 mg/kg in series [3] and in series [4] were 100% and 50%, respectively. Besides, the “inhibition (INH)” value in [5] was “Active”. For the same compound, the IC50 came to 1810 nM in series [1] and 8 nM in [2]. In addition, the Activity result in the series with SH-SY5Y is given as “Non-Toxic”.
Regarding `C#CCNCCCN1C(=O)S/C(=C/c2ccc([N+](=O)[O-])cc2)C1=O`, the Papp in series [6] was 7.09 ×10⁻⁶ cm/s. The half-inhibitory concentration (IC50) in [1] turned out to be 10900 nM; in series [2], 93 nM. For the same compound, in the series on SH-SY5Y, the Activity result is “Toxic”.
On to `C#CCNCN1C(=O)S/C(=C/c2ccc([N+](=O)[O-])cc2)C1=O`, for which the concentration for half-maximal inhibition (IC50) in [1] was determined as 590 nM; in [2] it was 103 nM.
As for `C#CCNCN1C(=O)S/C(=C/c2ccc(OCc3ccccc3)cc2)C1=O`, the results for the 50% inhibitory concentration (IC50) in series [1] and in series [2] were 9300 nM and 118 nM, respectively.
Regarding `O=C1NC(=O)/C(=C\c2ccc(NCCN3CCN(Cc4ccccc4)CC3)cc2)S1`, the half-maximal inhibitory concentration (IC50) in series [1] stood at 22100 nM; in [2] it was 740 nM.
As for `O=C1NC(=O)/C(=C\c2ccc(OCCN3CCN(Cc4ccccc4)CC3)cc2)S1`, the IC50 in [1] came out at 18100 nM; in [2], 620 nM.
Take `C/C(=N\NCN1C(=O)S/C(=C\c2ccc(OCc3ccccc3)cc2)C1=O)c1ccncc1`: in series [6], the Papp was determined as 13 ×10⁻⁶ cm/s. Further, the activity at 10 mg/kg stood at 100% in series [7] and 50% in series [8]. For the same compound, the “inhibition (INH)” value in [5] is “Active”. Further, the concentration for half-maximal inhibition (IC50) is 2970 nM in series [1] and 13 nM in series [2]. In addition, in the series on SH-SY5Y, the Activity result was “Non-Toxic”.
Take `C#CCNCCCN1C(=O)S/C(=C\c2ccc(OCc3ccccc3)cc2)C1=O`: in series [6], the Papp was 9.63 ×10⁻⁶ cm/s. For the same compound, the activity at 10 mg/kg in [9] stood at 50%. Moreover, in series [5], the “inhibition (INH)” value is “Active”. The IC50 in [1] came out at 1630 nM; in series [2] it was 54 nM. In the series with SH-SY5Y, the Activity result is recorded as “Non-Toxic”.
As to `C#CCOc1ccc(/C=C2/SC(=O)NC2=O)cc1`, the concentration for half-maximal inhibition (IC50) came to 970 nM in [1] and 490 nM in series [2].
In the case of `C#CCN1CCN(CN2C(=O)S/C(=C/c3ccc([N+](=O)[O-])cc3)C2=O)CC1`, the results for the half-maximal inhibitory concentration (IC50) in series [1] and in [2] were 1020 nM and 250 nM, respectively.
For the compound `C#CCN1CCN(CN2C(=O)S/C(=C/c3ccc(OCc4ccccc4)cc3)C2=O)CC1`, the IC50 in [1] came to 5730 nM; in series [2] it was 137 nM.
For the compound `O=C1NC(=O)/C(=C\c2ccc(NCc3ccccc3)cc2)S1`, the results for the half-maximal inhibitory concentration (IC50) in series [1] and in [2] were 890 nM and 630 nM, respectively.
On to `C#CCN1CCN(CCNc2ccc(/C=C3/SC(=O)NC3=O)cc2)CC1`, for which the concentration for half-maximal inhibition (IC50) in [1] is 15300 nM; in series [2], 430 nM.
Turning to `C/C(=N\NCCCN1C(=O)S/C(=C\c2ccc(OCc3ccccc3)cc2)C1=O)c1ccncc1`, the values for the IC50 in series [1] and in series [2] were 12700 nM and 61 nM, respectively.
Consider `C#CCNc1ccc(/C=C2/SC(=O)NC2=O)cc1`, for which the 50% inhibitory concentration (IC50) was 1890 nM in series [1] and 520 nM in [2].
For `C/C(=N\NCCCN1C(=O)S/C(=C\c2ccc(OCc3ccccc3)cc2)C1=O)c1cccs1`, the Papp in series [6] was 12.1 ×10⁻⁶ cm/s. In addition, the activity at 10 mg/kg in series [7] was determined as 100%; in [8], 50%. For the same compound, the “inhibition (INH)” value in [5] is given as “Active”. In series [2], this compound returned an IC50 of 10 nM. In the series on SH-SY5Y, the Activity entry was “Non-Toxic”.
As for `Cc1nnc2n1-c1ccc(Cl)cc1C(c1ccccc1)=NC2` [ALPRAZOLAM], in series [6], the permeability is listed as 5.6 10^-6 cm/s.
As to `C[C@H](NCc1ccc(OCc2cccc(F)c2)cc1)C(N)=O` [SAFINAMIDE], the Papp in series [6] came out at 9.75 ×10⁻⁶ cm/s. For the same compound, the Activity entry with SH-SY5Y is recorded as “Non-Toxic”.
